This is an account of results in paper PMC12663214, “Synthesis, structural elucidation, and molecular docking of diclofenac-derived hydrazone metal complexes with anti-inflammatory and anticancer potential” (Scientific Reports, 2025).

One may read the IC50 as the concentration at which inhibition is half-maximal. What is called inhibition is the change of the read-out against control, counted positive when it falls.

Values joined by “and” are separate entries in the source; they are usually repeats but may differ in a detail not shown here. Identical values can stand only once. Like-named read-outs stand apart in the source and are kept apart here.

Data set [1] has as its system MCF-7 (breast cancer) cell line. Briefly: MTT cytotoxicity assay, MCF-7. The class given is cell-based, homo sapiens, human. The following applies: for IC50: MTT, MCF-7. Here is the method:
(§1) MCF-7 and HepG-2 cell lines (provided by the Cell Culture Department, VACSERA, Egypt) were seeded in each 96-well tissue culture plate well at a concentration of 1 × 10^5 cells/ml, adding 100 µl/well. Incubation at 37 °C followed for 24 h until a full monolayer was established. The growth medium was later aspirated, and the cell monolayer was rinsed twice using wash media. It was then subjected to a two-fold dilution in an RPMI medium containing 2% serum, which is regarded as a maintenance medium. Later, 0.1 ml of each dilution was added to individual wells. Three wells were reserved for use as controls and received only the maintenance medium. The plate was then incubated at 37 °C and further monitored accordingly. The marks of toxicity to be checked on the cells include disruption of the cell monolayer, cell rounding and shrinking, or the appearance of granules. MTT solution is prepared from BIO BASIC CANADA INC with a 5 mg/ml strength in PBS. To ensure the MTT and media are well mixed, add 20 µl of MTT solution to each well and shake the plate. The MTT will be metabolized by incubating the plate at 37 °C with 5% CO2 for one to five hr. If there is any residual substance, get rid of the rest by drying the plate on paper towels. Add DMSO (200 µl) to dissolve the formazan (MTT metabolic product) and then put the plate on the shaking table set at 150 rpm for 5 min to assure that the formazan is fully dissolved into the solvent. Measure the optical density at 560 nm and subtract the background signal at 620 nm. The optical density value reflects directly the number of cells[28]–[30]. MCF-7 (breast cancer) and HepG-2 (liver cancer) cell lines.
(§2) The antitumor effects of the newly synthesized HDN ligand and its metal complexes with Cu(II) and Gd(III) were tested against MCF-7 (breast cancer) and HepG-2 (liver cancer) cell lines using the MTT assay[28]–[30].. This method measures cell viability based on mitochondrial activity, clearly indicating each compound’s cytotoxic potential. The key findings from these tests are outlined in Tables 4, S8, and S9 and illustrated in Figures S21-S31.
Background: Formazan colour is commonly taken as a measure of viable cells.

The subject of data set [2] is HepG-2 (liver cancer) cell line. Briefly: MTT cytotoxicity assay, HepG-2. In kind it is cell-based, homo sapiens, human. The conditions noted are these: for IC50: MTT, HepG-2. As for the experimental part: as §1, §2
The target of the next data set is T1, COX-1 (ovine) (Ovis aries, UniProt P05979).
T1 construct: purchased Cayman Chemical 560131
T1 sequence (P05979 25-600): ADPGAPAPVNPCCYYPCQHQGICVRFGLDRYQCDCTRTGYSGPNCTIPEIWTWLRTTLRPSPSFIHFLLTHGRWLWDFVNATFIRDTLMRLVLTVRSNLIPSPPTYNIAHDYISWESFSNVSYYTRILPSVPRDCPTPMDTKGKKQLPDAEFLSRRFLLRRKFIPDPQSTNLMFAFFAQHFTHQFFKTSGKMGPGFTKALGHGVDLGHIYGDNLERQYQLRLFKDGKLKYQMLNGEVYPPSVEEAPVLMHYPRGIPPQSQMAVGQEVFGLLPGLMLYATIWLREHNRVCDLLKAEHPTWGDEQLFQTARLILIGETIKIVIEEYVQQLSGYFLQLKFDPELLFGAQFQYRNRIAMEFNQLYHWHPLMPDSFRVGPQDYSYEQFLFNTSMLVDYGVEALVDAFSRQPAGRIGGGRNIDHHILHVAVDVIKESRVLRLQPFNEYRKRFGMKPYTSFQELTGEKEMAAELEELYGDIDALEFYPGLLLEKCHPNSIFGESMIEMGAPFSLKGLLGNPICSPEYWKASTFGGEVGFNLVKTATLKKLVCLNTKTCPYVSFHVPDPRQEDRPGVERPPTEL
Kind of data set: COX-1 inhibition, ELISA kit (Cayman Chemical). The class given is biochemical. The following applies: ovine COX-1, ELISA. An excerpt:
(§3) These enzymes are crucial targets in the development of anti-inflammatory agents due to their roles in prostaglandin synthesis, with COX-1 associated with normal physiological functions and COX-2 predominantly involved in inflammation.
On the technique in general: In an ELISA, binding on a coated surface is turned into a signal by an enzyme label.

Data set [3] deals with T2, recombinant COX-2 (human) (Homo sapiens, UniProt P35354).
T2 construct: purchased Cayman Chemical 560131
T2 sequence (P35354 18-604): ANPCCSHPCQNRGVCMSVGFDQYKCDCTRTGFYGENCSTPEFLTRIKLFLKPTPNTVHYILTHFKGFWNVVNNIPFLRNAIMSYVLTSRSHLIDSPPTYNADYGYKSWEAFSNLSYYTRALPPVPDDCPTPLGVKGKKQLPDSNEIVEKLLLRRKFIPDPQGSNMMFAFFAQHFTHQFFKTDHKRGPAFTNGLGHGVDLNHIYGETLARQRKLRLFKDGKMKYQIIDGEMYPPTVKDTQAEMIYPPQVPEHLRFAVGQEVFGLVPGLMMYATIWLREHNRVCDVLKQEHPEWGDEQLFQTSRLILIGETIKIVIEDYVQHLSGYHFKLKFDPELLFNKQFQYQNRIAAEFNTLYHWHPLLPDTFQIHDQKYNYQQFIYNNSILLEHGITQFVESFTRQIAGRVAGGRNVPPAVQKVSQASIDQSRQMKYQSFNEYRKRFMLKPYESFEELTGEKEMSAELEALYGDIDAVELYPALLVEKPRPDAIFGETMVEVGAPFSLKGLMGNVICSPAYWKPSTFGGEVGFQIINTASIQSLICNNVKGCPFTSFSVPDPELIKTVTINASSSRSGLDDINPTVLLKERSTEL
Kind of data set: COX-2 inhibition, ELISA kit (Cayman Chemical). The class given is biochemical. The conditions noted are these: for IC50: human recombinant COX-2, ELISA; for COX-2 selectivity index (S.I.): ratio of COX-1 IC50 to COX-2 IC50.
Description: as §3

Data set [4] has as its system MCF-7 (breast cancer) cell line. The conditions noted are these: cited from earlier work.
For data set [5], the system named is HepG-2 (liver cancer) cell line. The conditions noted are these: cited from earlier work.
Data set [6] is described as follows: Solubility in organic solvents. The class given is physicochemical.

Regarding [Cu(DN)2]2.5H2O [Cu(II)-HDN], the Inhibition % turned out to be 16.98% in data set [1] (MCF-7, 0.31 µM/ml); 63.27% in data set [1] (MCF-7, 0.62 µM/ml); 84.90% in data set [1] (MCF-7, 1.25 µM/ml); 97.18% in data set [1] (MCF-7, 2.50 µM/ml); 97.39% in data set [1] (MCF-7, 5.00 µM/ml); 97.49% in data set [1] (MCF-7, 10.00 µM/ml). The Inhibition % entry in data set [1] (MCF-7, 10.00 µM/ml, listed as Cu(II) complex) is reported as “exceeding 95%”; in data set [2] (HepG-2, 0.31 µM/ml) it was 2.96%; in data set [2] (HepG-2, 0.62 µM/ml), 35.16%; in data set [2] (HepG-2, 1.25 µM/ml), 61.65%; in data set [2] (HepG-2, 2.50 µM/ml), 85.53%; in data set [2] (HepG-2, 5.00 µM/ml), 97.32%. Also, the Inhibition % is given as 97.38% in data set [2] (HepG-2, 10.00 µM/ml) and “exceeding 95%” in data set [2] (HepG-2, 10.00 µM/ml, listed as Cu(II) complex). Moreover, the figures for the IC50 in data set [1] and in data set [2] were 650 nM and 1000 nM, respectively. The “times more potent than 5-fluorouracil” value in data set [1] (breast cancer cells (MCF-7), from IC50 values) is listed as “approximately six”.

In turn, `O=C(Cc1ccccc1Nc1c(Cl)cccc1Cl)NN=Cc1c([O-])ccc2ccccc12.O=C(Cc1ccccc1Nc1c(Cl)cccc1Cl)NN=Cc1c([O-])ccc2ccccc12.[Co+2]` [Co(II)-HDN, [Co(DN)2]] yielded an IC50 at COX-1 (ovine) of 8.5 µM. In data set [3], the IC50 came out at 620 nM and the “COX-2 selectivity index (S.I.)” value was 13.71.

Take `O=C(O)Cc1ccccc1Nc1c(Cl)cccc1Cl` [Diclofenac sodium]: the IC50 in data set [4] (ref [54],[64]) is 1790 µM; in data set [5] (ref [54],[64]) it was 147 µM.

`N.N.[Cl][Pt][Cl]` [Cisplatin]: the IC50 in data set [4] (ref [57],[58]) was 15.2 µM; in data set [5] (ref [57],[58]) it was 8.45 µM.

As to `CC(C)Cc1ccc(C(C)C(=O)O)cc1` (centres unmarked) [Ibuprofen], the IC50 in data set [4] (ref [54]) is 5060 µM.

Consider `O=c1[nH]cc(F)c(=O)[nH]1` [5-Fluorouracil], for which the IC50 in data set [4] (ref [55],[56]) is 3.95 µM; in data set [5] (ref [55],[56]), 32.5 µM.

Regarding `O.O.O.O.O=C(Cc1ccccc1Nc1c(Cl)cccc1Cl)NN=Cc1c(O)ccc2ccccc12.O=C(Cc1ccccc1Nc1c(Cl)cccc1Cl)NN=Cc1c(O)ccc2ccccc12.O=[N+]([O-])[O-].O=[N+]([O-])[O-].O=[N+]([O-])[O-].[Gd+3]` [Gd(III)-HDN, [Gd(HDN)2(NO3)2]NO3.4H2O], the IC50 amounted to 6 µM on COX-1 (ovine), 950 nM in data set [3], 800 nM in data set [1] and 2470 nM in data set [2]. For the same molecule, the “COX-2 selectivity index (S.I.)” value in data set [3] worked out at 6.31. The Inhibition % is recorded as 18.33% in data set [1] (MCF-7, 0.31 µM/ml); 50.83% in data set [1] (MCF-7, 0.62 µM/ml); 70.06% in data set [1] (MCF-7, 1.25 µM/ml); 75.34% in data set [1] (MCF-7, 2.50 µM/ml); 96.71% in data set [1] (MCF-7, 5.00 µM/ml); 96.86% in data set [1] (MCF-7, 10.00 µM/ml). Besides, the Inhibition % entry is given as “exceeding 95%” in data set [1] (MCF-7, 10.00 µM/ml, listed as Gd(III) complex); 0.45% in data set [2] (HepG-2, 0.31 µM/ml); 0.40% in data set [2] (HepG-2, 0.62 µM/ml); 7.98% in data set [2] (HepG-2, 1.25 µM/ml); 53.05% in data set [2] (HepG-2, 2.50 µM/ml); 81.14% in data set [2] (HepG-2, 5.00 µM/ml). For the same molecule, the Inhibition % is on record as 95.27% in data set [2] (HepG-2, 10.00 µM/ml) and “exceeding 95%” in data set [2] (HepG-2, 10.00 µM/ml, listed as Gd(III) complex).

With `O=C(Cc1ccccc1Nc1c(Cl)cccc1Cl)N/N=C/c1c(O)ccc2ccccc12` [Ligand [HDN], (E)−2-(2-((2,6-dichlorophenyl)amino)phenyl)-N’-((2-hydroxynaphthalen-1-yl)methylene)acetohydrazide], the IC50 against COX-1 (ovine) is 10.5 µM; in data set [3], 60 nM; in data set [1] (Homo sapiens, MCF7) it was 178 µM and 82.6 µg/mL; in data set [2] (Homo sapiens, HepG2) it was 152 µM and 70.5 µg/mL. Also, the “COX-2 selectivity index (S.I.)” value in data set [3] came to 174.5. In addition, the inhibition at 31.25 µg/mL is 7.98% in data set [1] (Homo sapiens, MCF7, MCF-7, 31.25 µg/ml) and 12.9% in data set [2] (Homo sapiens, HepG2, HepG-2, 31.25 µg/ml). In addition, the inhibition at 62.5 µg/mL in data set [1] (Homo sapiens, MCF7, MCF-7, 62.5 µg/ml) worked out at 52.5%; in data set [2] (Homo sapiens, HepG2, HepG-2, 62.5 µg/ml) it was 61.4%. Further, the inhibition at 250 µg/mL in data set [1] (Homo sapiens, MCF7, MCF-7, 250 µg/ml) came out at 89.2%; in data set [2] (Homo sapiens, HepG2, HepG-2, 250 µg/ml), 96.9%. Further, the inhibition at 500 µg/mL in data set [1] (Homo sapiens, MCF7, MCF-7, 500 µg/ml) is 97.3%; in data set [2] (Homo sapiens, HepG2, HepG-2, 500 µg/ml), 97.2%. The inhibition at 1000 µg/mL in data set [1] (Homo sapiens, MCF7, MCF-7, 1000 µg/ml) came out at 97.5%; in data set [2] (Homo sapiens, HepG2, HepG-2, 1000 µg/ml), 97%. In addition, the solubility in acetone entry in data set [6] (organic solvent: acetone) was “slight solubility”. In addition, the “solubility in DMSO and DMF” value in data set [6] (organic solvents: DMSO, DMF) is recorded as “dissolved well”. Also, the “solubility in EtOH and MeOH” value in data set [6] (organic solvents: EtOH, MeOH) is on record as “didn’t dissolve”.

For `O.O=C(Cc1ccccc1Nc1c(Cl)cccc1Cl)NN=Cc1c([O-])ccc2ccccc12.[Ag+]` [Ag(I)-HDN, [Ag(DN)(H2O)]], the “COX-2 selectivity index (S.I.)” value in data set [3] was 14.15.
